Source: US11077177B2, “Universal cancer vaccine” (priority 2016, dated 2021)

Tests used:
CD 8+ T cell repertoire = assay: Tetramer staining of peripheral blood mononuclear cells by flow cytometry after immunization with an altered peptide (FIG. 3B); assay type: cell-based
[1] = system: HLA molecule (types A1, A2, A3, A11, A24, B7 and B44); assay: HLA type bound by altered telomerase peptides (Table 1); assay type: binding, human; settings: MHC class I HLA type bound by the peptide; no test method described; listed as SEQ ID NO: 13

YLFFYRKSV (listed as Homo sapiens) [SEQ ID 13]
expansion of CD 8+ T cell repertoire cross-reacting with the naturally occurring peptide (CD 8+ T cell repertoire): this approach is feasible
HLA TYPE BOUND [1]: HLA-A2
